In brackets after ≈: the same amount, converted by molar mass. Read-outs that look alike come from different tables or passages of the source.
Tests used:
[1] = system: normal human liver cell lines (L02); experiment: Cytotoxic activity on normal cells, MTT assay; assay type: cell-based; details: for IC50: Homo sapiens, same protocol as DU-145, read-out: Normal Liver Cell Line (L02) (IC50 in µg/mL)
Experimental: (§1) In both the assays, the IC50 values of the tested compounds were compared with the positive control Methotrexate (Mtx). The reduction of the soluble MTT to blue-color formazan is the principle underlined in MTT assay and such change is chiefly due to the action of intracellular mitochondrial reductase in the living cells. […] Later, the desired concentrations of the compounds were achieved by dissolving in sterile water. The cells were transferred on to 96-well plates at 100 µL total volume and with a density of 1 × 10^4 cells per well. The cells were permitted to adhere for a period of 24 h and then the assay medium was replaced with a fresh medium containing target compounds and incubated in DMEM with 10% fetal bovine serum (FBS) medium at 37 °C for an additional 48 h. Later, the medium was replaced with 90 μL of fresh DMEM without FBS. The above wells were treated with 10 μL of MTT reagent (5 mg/mL of stock solution in DMEM without FBS) and incubated for 3–4 h at 37 °C. The formed blue formazan crystals were dissolved in 200 μL of DMSO. The optical density was then determined at 570 nm using a micro plate reader. The assay was executed in triplicate for three independent experiments. […] The IC50 values measured in µg/mL for the antiproliferative were converted and expressed in µM. Additionally, all the compounds were also assessed for their cytotoxic activity on the normal human liver cell lines (L02) using the same protocol discussed above.

[2] = system: Mycobacterium tuberculosis H37Rv strain; experiment: Antitubercular activity, broth dilution MIC; assay type: cell-based; details: for MIC: Mycobacterium tuberculosis, H37RV, 504 h, read-out: Mtb (H37Rv Strain) (MIC in µM); for MIC / Mtb (H37Rv Strain) (MIC in µM): broth dilution, 21 days at 37 °C, mean of three independent experiments, converted from µg/mL; for antitubercular activity of F compounds over the Cl-containing compounds: MIC 20.68 µM (9, 11) vs. 78.46 µM (1, 3); for antitubercular potency relative to the standard pyrazinamide: ratio of MICs, pyrazinamide MIC 25.34 ± 2 µM
[3] = system: prostate cancer cell line (DU-145); experiment: Antiproliferative activity, MTT assay; details: mean ± SD (n = 3), converted from µg/mL
Experimental: as §1

[4] = Homo sapiens, DU-145, 48 h, read-out: Prostate Cancer Cell Line (DU-145) (IC50 in µM), MTT, 48 h
[5] = read-out: Prostate Cancer Cell Line (DU-145) (IC50 in µM), MTT, 48 h

Row | Compound | melting point | IC50 [1] | MIC [2] | IC50 [3, 4] | Normal Liver Cell Line (L02) (IC50 in µg/mL) ([1]; same protocol as DU-145) | Mtb (H37Rv Strain) (MIC in µM) [2] | IC50 [3, 5] | antitubercular activity of F compounds over the Cl-containing compounds [2] | antitubercular potency relative to the standard pyrazinamide [2]
1 | O=C(/C=C/c1sc(Cl)nc1Cl)c1cccnc1 [Compound 18, (E)-3-(2,4-dichlorothiazol-5-yl)-1-(pyridin-3-yl)prop-2-en-1-one] | 162 °C | > 70 µg/mL | 701.4 ± 1 µM (≈ 200 µg/mL) | 28.1 ± 1 µM |  |  |  |  | 
2 | O=C(/C=C/c1sc(Cl)nc1Cl)c1cccc(Cl)c1 [Compound 2, (E)-1-(3-chlorophenyl)-3-(2,4-dichlorothiazol-5-yl)prop-2-en-1-one] | 88 °C | > 70 µg/mL | 313.9 ± 1 µM (≈ 100 µg/mL) | 1607 ± 2 µM |  |  |  |  | 
3 | (E)-1-(2,4-dichlorophenyl)-3-(2,4-dichlorothiazol-5-yl)prop-2-en-1-one [Compound 5] |  |  |  |  | >70 µg/mL | 35.40 ± 2 µM | 90.6 ± 1 µM |  | 
4 | O=C(/C=C/c1sc(Cl)nc1Cl)c1ccc(F)c(F)c1 [Compound 15, (E)-1-(3,4-difluorophenyl)-3-(2,4-dichlorothiazol-5-yl)prop-2-en-1-one] | 145 °C | > 70 µg/mL | 39 ± 1 µM (≈ 12.5 µg/mL) | 799.7 ± 1 µM |  |  |  |  | 
5 | CN(Cc1cnc2nc(N)nc(N)c2n1)c1ccc(C(=O)N[C@@H](CCC(=O)O)C(=O)O)cc1 [Methotrexate, reference compound] |  | > 70 µg/mL |  | 11 ± 1 µM |  |  |  |  | 
6 | O=C(/C=C/c1sc(Cl)nc1Cl)c1ccc(F)cc1 [Compound 11, (E)-1-(4-fluorophenyl)-3-(2,4-dichlorothiazol-5-yl)prop-2-en-1-one] | 126 °C | > 70 µg/mL | 20.7 ± 2 µM (≈ 6.25 µg/mL) | 847.3 ± 2 µM |  | 20.68 ± 1 µM | 423.6 ± 2 µM | 3.79 fold | 
7 | O=C(/C=C/c1sc(Cl)nc1Cl)c1cccc(Cl)c1Cl [Compound 4, (E)-1-(2,3-dichlorophenyl)-3-(2,4-dichlorothiazol-5-yl)prop-2-en-1-one] | 89 °C | > 70 µg/mL | 142 ± 2 µM (≈ 50 µg/mL) | 181.3 ± 1 µM |  |  |  |  | 
8 | O=C(/C=C/c1sc(Cl)nc1Cl)c1cccc(F)c1 [Compound 10, (E)-1-(3-fluorophenyl)-3-(2,4-dichlorothiazol-5-yl)prop-2-en-1-one] | 112 °C | > 70 µg/mL | 165.5 ± 1 µM (≈ 50 µg/mL) | 423.6 ± 2 µM |  |  | 847.3 ± 2 µM |  | 
9 | O=C(/C=C/c1sc(Cl)nc1Cl)c1nccs1 [Compound 20, (E)-3-(2,4-dichlorothiazol-5-yl)-1-(thiazol-2-yl)prop-2-en-1-one] | 127 °C | > 70 µg/mL | 343.4 ± 1 µM (≈ 100 µg/mL) | 6.86 ± 1 µM |  |  |  |  | 
10 | O=C(/C=C/c1sc(Cl)nc1Cl)c1cc(F)cc(F)c1 [Compound 16, (E)-1-(3,5-difluorophenyl)-3-(2,4-dichlorothiazol-5-yl)prop-2-en-1-one] | 109 °C | > 70 µg/mL | 156 ± 2 µM (≈ 50 µg/mL) | 3198.7 ± 1 µM |  |  |  |  | 
11 | O=C(/C=C/c1sc(Cl)nc1Cl)c1ccncc1 [Compound 19, (E)-3-(2,4-dichlorothiazol-5-yl)-1-(pyridin-4-yl)prop-2-en-1-one] | 177 °C | > 70 µg/mL | 350.7 ± 2 µM (≈ 100 µg/mL) | 14 ± 1 µM |  |  |  |  | 
12 | O=C(/C=C/c1sc(Cl)nc1Cl)c1cc(Cl)ccc1Cl [Compound 6, (E)-1-(2,5-dichlorophenyl)-3-(2,4-dichlorothiazol-5-yl)prop-2-en-1-one] | 84 °C | > 70 µg/mL | 141.6 ± 1 µM (≈ 50 µg/mL) | 2900.5 ± 2 µM |  |  |  |  | 
13 | O=C(/C=C/c1sc(Cl)nc1Cl)c1ccccn1 [Compound 17, (E)-3-(2,4-dichlorothiazol-5-yl)-1-(pyridin-2-yl)prop-2-en-1-one] | 156 °C | > 70 µg/mL | 350.7 ± 2 µM (≈ 100 µg/mL) | 14 ± 1 µM |  |  |  |  | 
14 | O=C(/C=C/c1sc(Cl)nc1Cl)c1ccc(F)cc1F [Compound 12, (E)-1-(2,4-difluorophenyl)-3-(2,4-dichlorothiazol-5-yl)prop-2-en-1-one] | 134 °C | > 70 µg/mL | 2.43 µM (≈ 0.778 µg/mL) | 100 ± 1 µM |  | 2.43 ± 1 µM |  |  | 10.42 times
15 | O=C(/C=C/c1sc(Cl)nc1Cl)c1c(F)cccc1F [Compound 14, (E)-1-(2,6-difluorophenyl)-3-(2,4-dichlorothiazol-5-yl)prop-2-en-1-one] | 141 °C | > 70 µg/mL | 9.74 ± 2 µM (≈ 3.12 µg/mL) | 25 ± 2 µM |  |  |  |  | 2.6 times
16 | O=C(/C=C/c1sc(Cl)nc1Cl)c1ccccc1F [Compound 9, (E)-1-(2-fluorophenyl)-3-(2,4-dichlorothiazol-5-yl)prop-2-en-1-one] | 91 °C | > 70 µg/mL | 20.7 ± 2 µM (≈ 6.25 µg/mL) | 53 ± 2 µM |  |  |  | 3.79 fold | 
17 | O=C(/C=C/c1sc(Cl)nc1Cl)c1cc(F)ccc1F [Compound 13, (E)-1-(2,5-difluorophenyl)-3-(2,4-dichlorothiazol-5-yl)prop-2-en-1-one] | 129 °C | > 70 µg/mL | 39 ± 1 µM (≈ 12.5 µg/mL) | 3198.7 ± 2 µM |  |  |  |  | 
18 | O=C(/C=C/c1sc(Cl)nc1Cl)c1ccc(Cl)cc1 [Compound 3, (E)-1-(4-chlorophenyl)-3-(2,4-dichlorothiazol-5-yl)prop-2-en-1-one] | 104 °C | > 70 µg/mL | 78.5 ± 1 µM (≈ 25 µg/mL) | 401.8 ± 1 µM |  |  |  |  | 
19 | O=C(/C=C/c1sc(Cl)nc1Cl)c1ccccc1Cl [Compound 1, (E)-1-(2-chlorophenyl)-3-(2,4-dichlorothiazol-5-yl)prop-2-en-1-one] | 80 °C | > 70 µg/mL | 78.5 ± 1 µM (≈ 25 µg/mL) | 100 ± 2 µM |  |  |  |  | 
20 | O=C(/C=C/c1sc(Cl)nc1Cl)c1ccc(Cl)c(Cl)c1 [Compound 8, (E)-1-(3,4-dichlorophenyl)-3-(2,4-dichlorothiazol-5-yl)prop-2-en-1-one] | 106 °C | > 70 µg/mL | 141.6 ± 1 µM (≈ 50 µg/mL) | 1450.3 ± 1 µM |  |  |  |  | 
21 | NC(=O)c1cnccn1 [Pyrazinamide, reference compound] |  |  | 25.3 µM (≈ 3.12 µg/mL) |  |  | 25.34 ± 2 µM |  |  | 

Reference: publication PMC8151732, “Thiazole–Chalcone Hybrids as Prospective Antitubercular and Antiproliferative Agents: Design, Synthesis, Biological, Molecular Docking Studies and In Silico ADME Evaluation” (Molecules, 2021)
